Test results reported in patent US10294246B2, “Substituted boronic acids and boronate esters as immunoproteasome inhibitors” (MERCK PATENT GMBH, priority 2014, dated 2019).

Columns and labels:
[1] = biological target: human immunoproteasome (LMP7) (Homo sapiens (Human), UniProt P28062); assay: Determination of LMP7 activity (fluorescence intensity assay, Suc-LLVY-AMC); type: biochemical; conditions: for Selectivity LMP7 vs Beta5: LMP7 versus Beta5; for IC50: purified human immunoproteasome 0.25 nM, Suc-LLVY-AMC 40 μM
Outline: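 0.25 nM purified human immunoproteasome preincubated 20 min at 25 °C with serially diluted compounds in 50 mM Tris pH 7.4, 0.03% SDS, 1 mM EDTA, 1% DMSO. Reaction started with 40 μM Suc-LLVY-AMC, run 60 min at 37 °C. Fluorescence read at ex 350/em 450 nm.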

[2] = biological target: human constitutive proteasome (Beta5) (Homo sapiens (Human), UniProt P28074); assay: Determination of Beta5 activity (fluorescence intensity assay, Suc-LLVY-AMC); type: biochemical; conditions: purified human constitutive proteasome 1.25 nM, Suc-LLVY-AMC 40 μM
Outline: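 Purified constitutive proteasome (1.25 nM) was preincubated with compounds 20 min at 25 °C in 50 mM Tris pH 7.4, 0.03% SDS, 1 mM EDTA, 1% DMSO. Suc-LLVY-AMC (40 μM) was then added for 60 min at 37 °C. AMC fluorescence was read at ex 350/em 450 nm.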

Row | Structure (SMILES) | Selectivity LMP7 vs Beta5 [1] | IC50 [1] [µM] | IC50 [2] [µM]
1 | O=C(Cc1cc(F)c(F)c(F)c1)N[C@@H](Cc1coc2ccccc12)B(O)O [Compound No. 22, [(1R)-2-(benzofuran-3-yl)-1-[[2-(3,4,5-trifluorophenyl)acetyl]amino]-ethyl]boronic acid] | ++++ (70 ≤ Selectivity < 100) | < 0.05 | 0.05 to 0.5
2 | Cc1ccc(C[C@H](NC(=O)CCOc2ccccc2)B(O)O)cc1 [Compound No. 4, [(1R)-1-(3-phenoxypropanoylamino)-2-(p-tolyl)ethyl]boronic acid] | ++ (10 ≤ Selectivity < 50) | < 0.05 | 0.05 to 0.5
3 | COc1cccc(CC(=O)N[C@@H](Cc2coc3ccccc23)B(O)O)c1 [Compound No. 15, [(1R)-2-(benzofuran-3-yl)-1-[[2-(3-methoxyphenyl)acetyl]amino]ethyl]-boronic acid] | ++++ (70 ≤ Selectivity < 100) | < 0.05 | 0.05 to 0.5
4 | O=C(Cc1cccc(OCCCO)c1)N[C@@H](Cc1coc2ccccc12)B(O)O [Compound No. 31, [(1R)-2-(benzofuran-3-yl)-1-[[2-[3-(3-hydroxypropoxy)phenyl]acetyl]-amino]ethyl]boronic acid] | ++++ (70 ≤ Selectivity < 100) | < 0.05 | 0.05 to 0.5
5 | CCOC(=O)Nc1cccc(CC(=O)N[C@@H](Cc2coc3ccccc23)B(O)O)c1 [Compound No. 72, [(1R)-2-(benzofuran-3-yl)-1-[[2-[3-(ethoxycarbonylamino)phenyl]-acetyl]amino]ethyl]boronic acid] | +++ (50 ≤ Selectivity < 70) | < 0.05 | 0.5 to 5
6 | COCc1cccc(CC(=O)N[C@@H](Cc2coc3ccccc23)B(O)O)c1 [Compound No. 49, [(1R)-2-(benzofuran-3-yl)-1-[[2-[3-(methoxymethyl)phenyl]acetyl]-amino]ethyl]boronic acid] | +++++ (Selectivity ≥ 100) | < 0.05 | 0.05 to 0.5
7 | Cc1ccc(C[C@H](NC(=O)Cc2ccccc2)B(O)O)cc1 [Compound No. 14, [(1R)-1-[(2-phenylacetyl)amino]-2-(p-tolyl)ethyl]boronic acid] | +++ (50 ≤ Selectivity < 70) | 0.05 to 0.5 | 0.5 to 5
8 | CO[C@H](C(=O)N[C@@H](Cc1coc2ccccc12)B(O)O)c1ccccc1 [Compound No. 33, [(1R)-2-(benzofuran-3-yl)-1-[[(2S)-2-methoxy-2-phenyl-acetyl]amino]-ethyl]boronic acid] | +++++ (Selectivity ≥ 100) |  | 0.5 to 5
9 | COc1ccc(CC(C(=O)N[C@@H](Cc2coc3ccccc23)B(O)O)c2ccccc2)cc1 (stereo partly drawn) [Compound No. 71, [(1R)-2-(benzofuran-3-yl)-1-[[3-(4-methoxyphenyl)-2-phenyl-propanoyl]amino]ethyl]boronic acid] | ++++ (70 ≤ Selectivity < 100) | < 0.05 | 0.5 to 5
10 | O=C(COc1ccccc1)N[C@@H](Cc1ccccc1)B(O)O [Compound No. 3, [(1R)-1-[(2-phenoxyacetyl)amino]-2-phenyl-ethyl]boronic acid] | ++ (10 ≤ Selectivity < 50) | < 0.05 | 0.05 to 0.5
11 | COCc1ccc(CC(=O)N[C@@H](Cc2coc3ccccc23)B(O)O)cc1 [Compound No. 30, [(1R)-2-(benzofuran-3-yl)-1-[[2-[4-(methoxymethyl)phenyl]acetyl]-amino]ethyl]boronic acid] | ++++ (70 ≤ Selectivity < 100) | < 0.05 | 0.05 to 0.5
12 | Cc1ccc(C[C@H](NC(=O)Cc2ccccc2)B(O)O)c(C)c1 [Compound No. 29, [(1R)-2-(2,4-dimethylphenyl)-1-[(2-phenylacetyl)amino]ethyl]boronic acid] | +++++ (Selectivity ≥ 100) | 0.05 to 0.5 | > 5
13 | N#Cc1ccccc1CC(=O)N[C@@H](Cc1coc2ccccc12)B(O)O [Compound No. 90, [(1R)-2-(benzofuran-3-yl)-1-[[2-(2-cyanophenyl)acetyl]amino]ethyl]-boronic acid] | +++++ (Selectivity ≥ 100) | < 0.05 | 0.5 to 5
14 | O=C(N[C@@H](Cc1coc2ccccc12)B(O)O)C(F)(F)c1ccccc1 [Compound No. 23, [(1R)-2-(benzofuran-3-yl)-1-[(2,2-difluoro-2-phenyl-acetyl)amino]-ethyl]boronic acid] | +++++ (Selectivity ≥ 100) | < 0.05 | 0.5 to 5
15 | COc1ccc(CC(=O)N[C@@H](C[C@H]2COc3c(C)cccc32)B(O)O)cc1 [Compound No. 88, [(1R)-1-[[2-(4-methoxyphenyl)acetyl]amino]-2-[(3R)-7-methyl-2,3-dihydrobenzofuran-3-yl]ethyl]boronic acid] | +++++ (Selectivity ≥ 100) | 0.05 to 0.5 | > 5
16 | COc1ccccc1CC(=O)N[C@@H](Cc1coc2ccccc12)B(O)O [Compound No. 27, [(1R)-2-(benzofuran-3-yl)-1-[[2-(2-methoxyphenyl)acetyl]amino]ethyl]-boronic acid] | ++++ (70 ≤ Selectivity < 100) | < 0.05 | 0.05 to 0.5
17 | COc1ccc(CCC(=O)N[C@H](CC2COc3c(C)cccc32)B(O)O)nc1 (stereo partly drawn) [Compound No. 87, [(1S)-1-[3-(5-methoxy-2-pyridyl)propanoylamino]-2-(7-methyl-2,3-dihydrobenzofuran-3-yl)ethyl]boronic acid] | + (Selectivity < 10) | 0.5 to 5 | > 5
18 | O=C(Cc1ccccc1C(=O)N1CCOCC1)N[C@@H](Cc1coc2ccccc12)B(O)O [Compound No. 63, [(1R)-2-(benzofuran-3-yl)-1-[[2-[2-(morpholine-4-carbonyl)phenyl]-acetyl]amino]ethyl]boronic acid] | +++++ (Selectivity ≥ 100) | < 0.05 | 0.5 to 5
19 | CCNC(=O)c1ccccc1CC(=O)N[C@@H](Cc1coc2ccccc12)B(O)O [Compound No. 65, [(1R)-2-(benzofuran-3-yl)-1-[[2-[2-(ethylcarbamoyl)phenyl]acetyl]-amino]ethyl]boronic acid] | ++++ (70 ≤ Selectivity < 100) | < 0.05 | 0.5 to 5

The remaining lines, values ahead:

Row | Selectivity LMP7 vs Beta5 [1] | IC50 [1] [µM] | IC50 [2] [µM] | Structure (SMILES)
20 | +++++ (Selectivity ≥ 100) | < 0.05 | 0.5 to 5 | Cc1ccc2c(C[C@H](NC(=O)Cc3ccccc3)B(O)O)coc2c1C [Compound No. 94, [(1R)-2-(6,7-dimethylbenzofuran-3-yl)-1-[(2-phenylacetyl)amino]ethyl]boronic acid]
21 | +++++ (Selectivity ≥ 100) | < 0.05 | 0.5 to 5 | N#Cc1ccccc1CC(=O)N[C@@H](C[C@@H]1COc2c(Cl)cccc21)B(O)O [Compound No. 134, [(1R)-2-[(3S)-7-chloro-2,3-dihydrobenzofuran-3-yl]-1-[[2-(2-cyanophenyl)acetyl]amino]ethyl]boronic acid]
22 | ++++ (70 ≤ Selectivity < 100) | < 0.05 | 0.5 to 5 | O=C(Cc1ccccc1-c1ccccc1)N[C@@H](Cc1coc2ccccc12)B(O)O [Compound No. 98, [(1R)-2-(benzofuran-3-yl)-1-[[2-(2-phenylphenyl)acetyl]amino]-ethyl]boronic acid]
23 | +++++ (Selectivity ≥ 100) | 0.05 to 0.5 | > 5 | C[C@@H](C(=O)N[C@@H](C[C@@H]1COc2ccccc21)B(O)O)c1ccccc1C(=O)N(C)C [Compound No. 99, [(1R)-2-[(3S)-2,3-dihydrobenzofuran-3-yl]-1-[[(2R)-2-[2-(dimethylcarbamoyl)phenyl]propanoyl]amino]ethyl]boronic acid]
24 | +++++ (Selectivity ≥ 100) | < 0.05 | > 5 | Cc1ccc2c(c1C)OCC2C[C@H](NC(=O)Cc1ccccc1)B(O)O (stereo partly drawn) [Compound No. 101, [(1R)-2-(6,7-dimethyl-2,3-dihydrobenzofuran-3-yl)-1-[(2-phenylacetyl)-amino]ethyl]boronic acid]
25 | +++++ (Selectivity ≥ 100) | < 0.05 | > 5 | Cc1cccc2c1OC[C@H]2C[C@H](NC(=O)Cc1ccccc1)B(O)O [Compound No. 124, [(1R)-2-[(3S)-7-methyl-2,3-dihydrobenzofuran-3-yl]-1-[(2-phenylacetyl)amino]ethyl]boronic acid]
26 | +++++ (Selectivity ≥ 100) | 0.05 to 0.5 | > 5 | COc1ccc(CC(=O)N[C@H](C[C@H]2COc3ccccc32)B(O)O)cc1 [Compound No. 118, [(1S)-2-[(3R)-2,3-dihydrobenzofuran-3-yl]-1-[[2-(4-methoxyphenyl)-acetyl]amino]ethyl]boronic acid]
27 | +++++ (Selectivity ≥ 100) | 0.05 to 0.5 | > 5 | COc1ccc(CCC(=O)N[C@@H](CC2COc3c2ccc(C)c3C)B(O)O)nc1 (stereo partly drawn) [Compound No. 102, [(1R)-2-(6,7-dimethyl-2,3-dihydrobenzofuran-3-yl)-1-[3-(5-methoxy-2-pyridyl)propanoylamino]ethyl]boronic acid]
28 | +++++ (Selectivity ≥ 100) | 0.05 to 0.5 | > 5 | C[C@@H](C(=O)N[C@@H](Cc1coc2ccccc12)B(O)O)c1ccccc1C(=O)N(C)C [Compound No. 97, [(1R)-2-(benzofuran-3-yl)-1-[[(2R)-2-[2-(dimethylcarbamoyl)-phenyl]propanoyl]amino]ethyl]boronic acid]
